Laboratory results as given in patent publication US11827629B2, “CDGSH iron sulfur domain 2 activators and use thereof” (National Health Research Institutes, priority 2021, dated 2023).

Key:
[1] = test system: Cisd2 hKO-het mice; assay: In vivo NAFLD study in Cisd2 hKO-het mice (histopathology, serum biochemistry); conditions: Cisd2 hKO-het male mice, 0.015 wt % in diet for 4 weeks
Protocol: Compound 28 of this invention was evaluated for its anti-nonalcoholic fatty liver disease (NAFLD) effect and in vivo toxicity following an assay described below.
Cisd2 floxed allele (Cisd2 f/f) mice were prepared following a procedure described in Wang et al., Hum. Mol. Genet. 23, 4770-85(2014). To obtain Cisd2 heterozygous hepatocyte-specific knockout (Cisd2 hKO-het, Cisd2 f/+; Alb-Cre Tg), Cisd2 f/f mice were bred with Albumin-Cre transgenic (Alb-Cre Tg, JAX003574) mice. After one generation, Cisd2 hKO-het mice were obtained. Male mice were chosen to be used in this study. All mice have a pure or congenic C57BL/6 background and were bred/housed in a specific pathogen-free facility with a 12 h light/12 h dark cycle at a temperature of 20-22° C. Groups of mice at 8 weeks old were provided a diet (AIN93G, TestDiet) containing a vehicle (0.14 wt % of DMF and 0.15 wt % of Cremophor® EL) or compound 28 (0.015 wt %) for 4 weeks.
Histopathology was used to evaluate the efficacy of Compound 28 in ameliorating NAFLD. Liver tissues were collected and fixed with 10% formalin at 4° C. overnight. They were then processed in a tissue processor (STP120, MICROM), followed by embedding in paraffin. H&E of tissue sections (3-4 m) were carried out by a standard protocol. […]

[2] = test system: Male C57BL/6 mice; assay: In vivo doxorubicin-induced cachexia and hepatotoxicity; conditions: 1 mg/kg i.p. twice a day for 2 days, doxorubicin 25 mg/kg i.p.
Protocol: Compound 28 was used in rescuing doxorubicin-induced cachexia and hepatotoxicity in the following in vivo study.
Male C57BL/6 mice between 7 and 8 months were pretreated with Compound 28 (1 mg/kg) or a vehicle (1.5 wt % of DMF and 3 wt % of Cremophor® EL in PBS) via intraperitoneal injection (i.p.) twice a day for 2 days. At day 0, 1 hour after the treatment with compound 28, doxorubicin (25 mg/kg, i.p.) or another vehicle (10% DMSO in normal saline) were injected into mice.
Different tissues including livers, cardiac muscle (left ventricle), skeletal muscle (gastrocnemius), brown adipose tissue, and white adipose tissue were weighted and collected after mice were sacrificed. The tissues were fixed with 10% formalin at 4° C. overnight, processed in a tissue processor, and then embedded in paraffin. H&E of tissue sections (3-4 m) were carried out by a standard protocol as described above.

[3] = test system: Cisd2 hKO male mice; assay: In vivo fructose-induced NASH model in Cisd2 hKO mice (histopathology, GTT, ITT); conditions: 0.015 wt % in diet for 5 months
Description: Compound 28 was used to alleviate nonalcoholic steatohepatitis (NASH) in Cisd2 hKO male mice described above.
Cisd2 hKO were bred for two generations. […] They were fed 30% (w/v) fructose (Alfa Aesar A17718) in water to establish a fructose-induced NASH model. Groups of mice at 2 months old were provided with a diet (AIN93G, TestDiet) containing a vehicle (0.14 wt % of DMF and 0.15 wt % of Cremophor® EL) or Compound 28 (0.015 wt %) for 5 months. The food and drinking water were provided ad libitum.
Histopathology was used to evaluate the efficacy of Compound 28 in alleviating NASH. Liver tissues were processed and stained as described in Example 53 above.
An oral glucose tolerance test (GTT) and an insulin tolerance test (ITT) were performed to study beneficial effects of Compound 28 in the fructose-induced NASH model. In the oral glucose tolerance test, mice were fasted for 14 hours (7 p.m. to 9 a.m.) and then were orally administrated with glucose water (1.5 mg/g body weight) using a feeding needle. Blood samples were collected from tail vein before (0 min) and after glucose treatment at predetermined time points. Blood glucose levels were measured using OneTouch® Ultra glucose test strips and SureStep® Meter (LifeScan). In the insulin tolerance test, mice were fasted for 2 hours (9 a.m. to 11 a.m.) and then intraperitoneally injected with insulin (0.75 U/kg body weight) (Actrapid® human regular insulin, Novo Nordisk). Blood samples were collected and monitored at predetermined time points.

[4] = test system: Cisd2 promoter with firefly luciferase reporter; assay: Cisd2-luciferase reporter assay in HEK293-CISD2 cells; assay type: cell-based; conditions: Homo sapiens, 24 hours incubation, luciferase luminescence
Outline: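 HEK293 cells stably carrying Cisd2 promoter-firefly luciferase, seeded at 3×10^3 cells/well, exposed to compounds 24 h at 37 °C; luminescence read after 5 min ONE-Glo at room temperature. EC50 reported in classes: A <1 μM, B 1-5 μM, C 5-10 μM.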

O=C(CS(=O)(=O)c1nccs1)N1Cc2ccccc2C1 [Compound 28, 1-(1,3-dihydro-2H-isoindol-2-yl)-2-(1,3-thiazol-2-ylsulfonyl)ethanone]
anti-nonalcoholic fatty liver disease (NAFLD) effect ([1]; liver histopathology): ameliorated NAFLD in Cisd2 hKO-het mice
in vivo toxicity ([1]; serum ALT, AST, BUN, CRE): without observed toxicity
effect on doxorubicin-induced hepatotoxicity [2]: alleviated doxorubicin-induced hepatotoxicity
effect on doxorubicin-induced cachexia ([2]; tissue weights): alleviated doxorubicin-induced hepatotoxicity and cachexia
effect on fructose-induced NASH ([3]; Cisd2 hKO male mice, 30% fructose in water, liver histopathology): ameliorate fructose-induced NASH
toxicity ([3]; fructose-induced NASH model): without obvious toxicity
effect on fructose-induced insulin resistance ([3]; insulin tolerance test): alleviate fructose-induced glucose intolerance and insulin resistance
effect on fructose-induced glucose intolerance ([3]; oral glucose tolerance test): alleviate fructose-induced glucose intolerance
EC50 [4]: < 1 µM
